Data reported in paper PMC11857211, “Bioprospecting Bioactive Peptides in Halobatrachus didactylus Body Mucus: From In Silico Insights to Essential In Vitro Validation” (Marine Drugs, 2025).
Marks after values point to notes of the source that are not given here.

How the values were obtained:
ORAC assay = conditions: fluorescence monitored 80 min, means (n ≥ 3) ± SD, nd: not detected
Method: The ORAC assay followed the protocol outlined by Coscueta et al.. […] Fluorescence was monitored for 80 min at 1 min intervals. Each sample, standard, blank, or control, analysis was duplicated. The final ORAC values were expressed as µmol TE/µmol of peptide for the peptides and µmol TE /mg of protein for the digestion retentate and permeate contents.

[1] = ORAC assay of peptide mixed with mucus (synergy); design: Increase in ORAC antioxidant activity of peptide combined with mucus versus sum of the individual systems: concentration or dose not given beside the values; conditions: for Increase in ORAC antioxidant activity of peptide combined with mucus versus sum of the individual systems: one part peptide to four parts mucus; for ORAC of the peptide alone in the synergy experiment: one part peptide to four parts phosphate buffer, Figure 3 captive, Figure 4 wild series
Method: The ORAC assay followed the protocol outlined by Coscueta et al.. […] Fluorescence was monitored for 80 min at 1 min intervals. Each sample, standard, blank, or control, analysis was duplicated. The final ORAC values were expressed as µmol TE/µmol of peptide for the peptides and µmol TE /mg of protein for the digestion retentate and permeate contents. The synergistic interaction between the mucus and peptides was performed by mixing the peptides with mucus at a ratio of one part peptide to four parts mucus. In addition, control analyses were performed by mixing one part of the phosphate buffer with four parts of the mucus and another with one part of the peptide to four parts of the phosphate buffer. The mixtures were then tested in the ORAC assay. The final ORAC values were expressed as µM TE.

[2] = system: Escherichia coli ATCC 25922; experiment: Growth inhibition curves; assay type: cell-based; conditions: HdKTLR 262, HdKNL 262, HdPPP 130 (5% DMSO), HdVLPN 204, HdLPN 227 µg/mL; MH broth, OD 600 nm hourly, 24 h, 37 °C
Method: (§1) The antimicrobial activity of the mucus samples was evaluated following the method by against the following pathogenic bacteria: Gram-negative Escherichia coli ATCC 25922, Salmonella enterica serovar Enteritidis ATCC 13076, and Pseudomonas aeruginosa ATCC 27853 and Gram-positive Staphylococcus aureus ATCC 6538. The mucus samples were combined with a 1/10 ratio of inoculum containing 1% (v/v) of bacteria cultured for 24 h in MH broth. For the positive control, deionized water was used instead of mucus samples with a 1% inoculum, while deionized water with MH served as the negative control. A control using chloramphenicol was made at a concentration of 16 µg/mL for E. coli, S. enterica, and P. aeruginosa and 100 µg/mL for S. aureus. The mixture was then transferred to a 96-well microplate (Sarstedt, Germany), and the optical density (OD) at 600 nm was measured every hour for a 24 h period at 37 °C using a microplate reader (Multiskan GO, Thermo Scientific, Finland). An increase in OD indicated bacterial growth.

[3] = system: Pseudomonas aeruginosa ATCC 27853; experiment: Growth inhibition curves; assay type: cell-based; conditions: HdKTLR 262, HdKNL 262, HdPPP 130 (5% DMSO), HdVLPN 204, HdLPN 227 µg/mL; MH broth, OD 600 nm hourly, 24 h, 37 °C
Method: as §1

[4] = system: Salmonella enterica serovar Enteritidis ATCC 13076; experiment: Growth inhibition curves; assay type: cell-based; conditions: HdKTLR 262, HdKNL 262, HdPPP 130 (5% DMSO), HdVLPN 204, HdLPN 227 µg/mL; MH broth, OD 600 nm hourly, 24 h, 37 °C
Method: as §1

[5] = system: Staphylococcus aureus ATCC 6538; experiment: Growth inhibition curves; assay type: cell-based; conditions: HdKTLR 262, HdKNL 262, HdPPP 130 (5% DMSO), HdVLPN 204, HdLPN 227 µg/mL; MH broth, OD 600 nm hourly, 24 h, 37 °C
Method: as §1

E. coli biofilm = experiment: Antibiofilm activity (crystal violet); assay type: cell-based, Escherichia coli; conditions: 24 h incubation, HdKTLR 262, HdKNL 262, HdPPP 130, HdVLPN 204, HdLPN 227 µg/mL, OD 595 nm
Method: (§2) The antibiofilm activity was determined according to the following method, with some modifications. Taking the microplate from 24 h inhibition growth curves, the contents of the plate were discarded, and each well was carefully washed three times with distilled water to remove non-adherent cells. The adhered cells were fixed with 150 µL of methanol for 10 min. Then, the methanol was discarded, the plates were left to dry, and then, the fixed biofilm was stained with […] of crystal violet (CV) for 10 min. Excess stain was rinsed out by placing the plate under slow-running tap water. Once the plates were air-dried, the dye attached to the adherent cells was resolubilized by adding 150 µL of 33% (v/v) glacial acetic acid and agitated for 15 min. The optical density of the solution obtained was measured at 595 nm using a multidetection plate reader (Synergy H1, Winooski, VT, USA). All tests were carried out in duplicate, with a positive control using an inoculated culture in MH broth and a negative control using MH broth only. The results are presented as the percentage of biofilm formation, calculated according to the following formula, where the OD of the sample is the measured OD of the inoculated medium mixed with the peptides, and the OD of the positive control is the OD measured for the positive control.% Biofilm formation = (ODsample/ODpositive control) × 100(1)

P. aeruginosa biofilm = experiment: Antibiofilm activity (crystal violet); assay type: cell-based, Pseudomonas aeruginosa; conditions: 24 h incubation, HdKTLR 262, HdKNL 262, HdPPP 130, HdVLPN 204, HdLPN 227 µg/mL, OD 595 nm
Method: as §2

S. aureus biofilm = experiment: Antibiofilm activity (crystal violet); assay type: cell-based, Staphylococcus aureus; conditions: 24 h incubation, HdKTLR 262, HdKNL 262, HdPPP 130, HdVLPN 204, HdLPN 227 µg/mL, OD 595 nm
Method: as §2

Lactobacillus species = experiment: Probiotic growth curves; assay type: cell-based; conditions: L. acidophilus Ki, La5, L. plantarum 299V, L. casei, L. rhamnosus RII; HdKTLR 262, HdKNL 262, HdVLPN 204, HdLPN 227 µg/mL; MRS broth, 24 h, 37 °C, OD 650 nm
Method: The effect of the peptides on probiotics was evaluated using the following probiotic Lactobacillus and Bifidobacterium species: L. acidophilus Ki (LAS), L. acidophilus La5, L. casei L26, L. plantarum 299V, L. rhamnosus RII, B. longum BG3 B. animalis spp. lactis BB12, B. animalis BLC, and B. animalis Bo. All the assays were performed using MRS broth supplemented with 0.5 g/L of L-cysteine. The peptides were combined with a 1/10 ratio of inoculum, containing 2% (v/v) of the probiotic and cultured for […] in MRS broth. For the positive control, deionized water was used instead of the peptides, with a 2% inoculum, while deionized water with MRS served as the negative control. Peptide wells with Bifidobacterium were sealed with paraffin to assure anaerobiosis conditions. The bacterial growth was monitored at 650 nm for 24 h at 37 °C in a microplate reader (Multiskan GO, Thermo Scientific, Finland), and the optical density (OD) was measured hourly. Growth curves were created by transforming the absorbance values in natural logarithms ln (Abs).

[6] = cited from earlier work
From the text: Table 4 Summary of peptide solubility and concentration values. | column: Solubility || A high-performance size exclusion chromatography (HPSEC) analysis was employed to validate the molecular weight of the selected peptides, HdKTLR, HdKNL, HdVLPN, and HdLPN, synthesized by GenScript Biotech (Rijswijk, The Netherlands), following the preparation instructions provided in the technical datasheet. […] At higher concentrations, viscosity may increase due to molecular interactions between DMSO, buffer ions, and water. In iso ...

Sequence	ORAC (ORAC assay; SD)	Increase in ORAC antioxidant activity of peptide combined with mucus versus sum of the individual systems ([1]; captive mucus sample)	ORAC of the peptide alone in the synergy experiment [1]	Antimicrobial activity (growth inhibition curve) [2]	Antimicrobial activity (growth inhibition curve) [3]	Antimicrobial activity (growth inhibition curve) [4]	Antimicrobial activity (growth inhibition curve) [5]	Biofilm formation versus control (E. coli biofilm)	Biofilm formation versus control (P. aeruginosa biofilm)	Biofilm formation versus control (S. aureus biofilm)	Effect on probiotic growth (Lactobacillus species)	Solubility (solvent) [6]	ORAC (ORAC assay)	Increase in ORAC antioxidant activity of peptide combined with mucus versus sum of the individual systems ([1]; wild mucus sample)
DPPNPKNL [HdKNL]	0.048 ± 0.002 ^a µmol TE/µmol Peptide	126%	no antioxidant activity was detected	did not demonstrate antimicrobial potential	did not demonstrate antimicrobial potential	did not demonstrate antimicrobial potential	did not demonstrate antimicrobial potential	no significant differences	substantially reduced biofilm production	no significant differences	did not inhibit the growth	H2O		
EDNSELGQETPTLR [HdKTLR]			no antioxidant activity was detected	did not demonstrate antimicrobial potential	did not demonstrate antimicrobial potential	did not demonstrate antimicrobial potential	did not demonstrate antimicrobial potential	no significant differences	substantially reduced biofilm production	no significant differences	did not inhibit the growth	H2O		
PFPGPLPN [HdLPN]	0.195 ± 0.030 ^b,c µmol TE/µmol Peptide	51%		did not demonstrate antimicrobial potential	did not demonstrate antimicrobial potential	did not demonstrate antimicrobial potential	did not demonstrate antimicrobial potential	no significant differences	substantially reduced biofilm production	no significant differences	did not inhibit the growth	H2O	0.195 µmol TE/µmol Peptide	54%
VYPFPGPLPN [HdVLPN]	1.560 ± 0.110 ^c µmol TE/µmol Peptide	31%		did not demonstrate antimicrobial potential	did not demonstrate antimicrobial potential	did not demonstrate antimicrobial potential	did not demonstrate antimicrobial potential	no significant differences	substantially reduced biofilm production	no significant differences	did not inhibit the growth	H2O	1.560 µmol TE/µmol Peptide	44%
